Experimental data: patent publication US12226410B2, “Methods for enhancing cellular clearance of pathological molecules via activation of the cellular protein ykt6” (NORTHWESTERN UNIVERSITY, priority 2019, dated 2025)

Legend:
[1] = tested on: ykt6; assay: FTI treatment of DASYN53 mice: membrane-associated ykt6 and SNARE complexes; assay type: in vivo; settings: DASYN53 mice 12-14 months; i.p. 0.9 mg/kg, 26d; olfactory bulbs, midbrain
Protocol: FIGS. 7A, 7B, 7C, 7D, and 7E. FTI treatment restores functional membrane-associated ykt6 complexes in DASYN53 mice. 7A) Immunohistochemistry in the midbrain of mice showing ykt6, tyrosine hydroxylase (TH), NeuN, and nuclei (DAPI). Scale bar, 50 μm. 7B) Ykt6 membrane shift analysis in olfactory bulbs of FTI (LNK-754)-injected DASYN53 mice (12-14 months, i.p. 26d, 0.9 mg/kg) (n=5, non-transgenic (nTg)+veh; n=4, DASYN53+veh; n=4 DASYN53+FTI). GAPDH and sec22b are loading controls. 7C) SEC/western blot analysis of midbrains of FTI-treated DASYN53 mice. Inputs are shown on the left. NSE is a loading control. […] (n=3, nTg+veh; n=4, DASYN53+veh; n=4 DASYN53+FTI). 7D) Quantification of complexes from SEC in 7C. 7E) GCase maturation was assessed in midbrain lysates by endo H resistance (n=4, nTg+veh; n=4, DASYN53+veh; n=4 DASYN53+FTI). For all quantifications, each point represents a measurement from an individual animal. Values are the mean+/−SEM, *p<0.05; **p<0.01, ***p<0.001, ANOVA with Tukey's post-hoc test.
Treatment of C57Bl/6 and DASYN53 mice with farnesyltransferase inhibitors. 3 mo old C57BL6 mice were i.p. injected daily with 0.9 mg/kg LNK-754 that was formulated in a vehicle of 0.5% sodium carboxymethylcellulose and filtered before use for 14 days. DASYN53 mice were i.p. injected daily with 0.9 mg/kg LNK-754 as above. […]

[2] = tested on: DASYN53 mice; assay: Behavioral analysis of DASYN53 mice (body weight, Rotarod); assay type: in vivo; settings: i.p. 0.9 mg/kg
Source text: FIGS. 8A, 8B, 8C, 8D, 8E, and 8F. FTI treatment enhances GCase activity and reduces pathological a-syn in transgenic mice. 8A) GCase activity in the midbrain of FTI (LNK-754)-treated DASYN53 mice (treated as in FIG. 7) (n=4, veh; n=5, FTI). 8B & 8C) Quantification of soluble and insoluble a-syn from midbrains of FTI-treated DASYN53 mice normalized to total protein (CBB). Syn211 is selective for human (hu) a-syn; C20 and syn303 detect mouse (ms) and hu a-syn, (n=3, nTg+Veh; n=4, DASYN53+veh; n=5 DASYN53+FTI). 8D) Midbrain TH levels were quantified by western blot of FTI-treated DASYN53 mice (n=3). 8E) Body weight of FTI-treated DASYN53 mice (n=9, nTg+Veh; n=7, DASYN53+veh; n=7 DASYN53+FTI). 8F) Rotarod test of FTI-treated DASYN53 mice (n=12, nTg+Veh; n=7, DASYN53+veh; n=7 DASYN53+FTI). Values are the mean+/−SEM. *p<0.05, **p<0.01, and *** p<0.001. Student's t-test, panel A; ANOVA with Tukey's posthoc test, panels B-F.
Behavioral analysis of DASYN53 mice. These assays were done as previously described (Tsika et al., 2010). […] Balance and motor behavior testing was done at the end of the injection protocol (between days 24-26) and determined using a Rotarod apparatus (Ugo Basile) with acceleration from 4-40 rpm over a 300 second period. Latency to fall was recorded over 4 trials per mouse, and the data were presented as the average of 3 trials (excluding the first trial as a training session). […]

With `C#Cc1cccc(-c2cc(=O)n(C)c3ccc([C@](O)(c4ccc(Cl)cc4)c4cncn4C)cc23)c1` [LNK-754] the “reduced membrane-associated ykt6 and SNARE complexes of DASYN53 mice” value [1] was “reversed these effects”, the “reduction in body weight of DASYN53 mice” value ([2]; day 23-24) was “rescued” and the “reduction in motor performance (Rotarod) of DASYN53 mice” value ([2]; days 24-26) was “rescued”.
